From ChEMBL document CHEMBL3885881, “DrugMatrix”

Organism: Rattus norvegicus
Assay: DrugMatrix - Regimen: Daily Repeat
Type: toxicity, organism-based, Sprague-Dawley
Parameters: regimen Daily Repeat, gender Male, age 6-8 weeks
Settings: in vivo, po, 75 mg/kg, route oral GAVAGE, dose level High, vehicle .5 % CMC; for ABSOLUTE BASOPHIL / ABSOLUTE EOSINOPHIL / ABSOLUTE LYMPHOCYTE / ABSOLUTE MONOCYTE / ABSOLUTE SEGMENTED NEUTROPHIL / BASOPHIL / EOSINOPHIL / ERYTHROCYTE COUNT / HEMATOCRIT / HEMOGLOBIN / LEUKOCYTE COUNT / LYMPHOCYTE / MEAN CORPUSCULAR HEMOGLOBIN / MEAN CORPUSCULAR HEMOGLOBIN CONCENTRATION / MEAN CORPUSCULAR VOLUME / MONOCYTE / NEUTROPHIL / NUCLEATED RED BLOOD CELLS / PLATELET COUNT: tissue Blood
[1] = 72 h, tissue Plasma, time 3 day
[2] = 120 h, tissue Plasma, time 5 day

SMILES: COc1ccc(C2CNC(=O)C2)cc1OC1CCCC1 (stereo not drawn) [ROLIPRAM]
- ABSOLUTE BASOPHIL (72 h, time 3 day): 0 CELLS/uL
- ABSOLUTE EOSINOPHIL (72 h, time 3 day): 174 CELLS/uL
- ABSOLUTE LYMPHOCYTE (72 h, time 3 day): 10500 CELLS/uL
- ABSOLUTE MONOCYTE (72 h, time 3 day): 432 CELLS/uL
- ABSOLUTE SEGMENTED NEUTROPHIL (72 h, time 3 day): 3427.33 CELLS/uL
- BASOPHIL (72 h, time 3 day): 0%
- EOSINOPHIL (72 h, time 3 day): 1%
- ERYTHROCYTE COUNT (72 h, time 3 day): 6.02 x10E6/uL
- HEMATOCRIT (72 h, time 3 day): 37.7%
- HEMOGLOBIN (72 h, time 3 day): 13.93 G/DL
- LEUKOCYTE COUNT (72 h, time 3 day): 14.53 x10E3/uL
- LYMPHOCYTE (72 h, time 3 day): 73.33%
- MEAN CORPUSCULAR HEMOGLOBIN (72 h, time 3 day): 23.2 pg
- MEAN CORPUSCULAR HEMOGLOBIN CONCENTRATION (72 h, time 3 day): 36.97 G/DL
- MEAN CORPUSCULAR VOLUME (72 h, time 3 day): 62.73 fL
- MONOCYTE (72 h, time 3 day): 2.67%
- NEUTROPHIL (72 h, time 3 day): 23%
- NUCLEATED RED BLOOD CELLS (72 h, time 3 day): 0 /100WBC
- PLATELET COUNT (72 h, time 3 day): 1088.33 x10E3/uL
- ALANINE AMINOTRANSFERASE [1]: 60.33 u/L
- ALBUMIN [1]: 4.3 G/DL
- ALKALINE PHOSPHATASE [1]: 331.67 u/L
- ASPARTATE AMINOTRANSFERASE [1]: 73.33 u/L
- BLOOD UREA NITROGEN [1]: 14.67 mg/dL
- CARBON DIOXIDE [1]: 28 mmol/L
- CHLORIDE [1]: 104 MEQ/L
- CHOLESTEROL [1]: 63.33 mg/dL
- CREATININE [1]: 0.17 mg/dL
- GLUCOSE [1]: 170.67 mg/dL
- LACTATE DEHYDROGENASE [1]: 116 u/L
- LIPASE [1]: 10 u/L
- PHOSPHORUS [1]: 11 mg/dL
- POTASSIUM [1]: 6.1 MEQ/L
- SODIUM [1]: 147.83 MEQ/L
- TOTAL BILIRUBIN [1]: 0.1 mg/dL
- TOTAL PROTEIN [1]: 6.23 G/DL
- URIC ACID [1]: 1.73 mg/dL
- ABSOLUTE BASOPHIL (120 h, time 5 day): 0 CELLS/uL
- ABSOLUTE EOSINOPHIL (120 h, time 5 day): 142.67 CELLS/uL
- ABSOLUTE LYMPHOCYTE (120 h, time 5 day): 8076.67 CELLS/uL
- ABSOLUTE MONOCYTE (120 h, time 5 day): 387 CELLS/uL
- ABSOLUTE SEGMENTED NEUTROPHIL (120 h, time 5 day): 1493.67 CELLS/uL
- BASOPHIL (120 h, time 5 day): 0%
- EOSINOPHIL (120 h, time 5 day): 1.33%
- ERYTHROCYTE COUNT (120 h, time 5 day): 6.66 x10E6/uL
- HEMATOCRIT (120 h, time 5 day): 40%
- HEMOGLOBIN (120 h, time 5 day): 14.37 G/DL
- LEUKOCYTE COUNT (120 h, time 5 day): 10.1 x10E3/uL
- LYMPHOCYTE (120 h, time 5 day): 81.33%
- MEAN CORPUSCULAR HEMOGLOBIN (120 h, time 5 day): 21.6 pg
- MEAN CORPUSCULAR HEMOGLOBIN CONCENTRATION (120 h, time 5 day): 35.93 G/DL
- MEAN CORPUSCULAR VOLUME (120 h, time 5 day): 60.07 fL
- MONOCYTE (120 h, time 5 day): 3.67%
- NEUTROPHIL (120 h, time 5 day): 13.67%
- NUCLEATED RED BLOOD CELLS (120 h, time 5 day): 0 /100WBC
- PLATELET COUNT (120 h, time 5 day): 1039 x10E3/uL
- ALANINE AMINOTRANSFERASE [2]: 69.67 u/L
- ALBUMIN [2]: 4.5 G/DL
- ALKALINE PHOSPHATASE [2]: 284.67 u/L
- ASPARTATE AMINOTRANSFERASE [2]: 99.67 u/L
- BLOOD UREA NITROGEN [2]: 15.33 mg/dL
- CARBON DIOXIDE [2]: 34.33 mmol/L
- CHLORIDE [2]: 101.67 MEQ/L
- CHOLESTEROL [2]: 82.67 mg/dL
- CREATININE [2]: 0.18 mg/dL
- GLUCOSE [2]: 127 mg/dL
- LACTATE DEHYDROGENASE [2]: 138.67 u/L
- LIPASE [2]: 8.67 u/L
- PHOSPHORUS [2]: 9.93 mg/dL
- POTASSIUM [2]: 6.21 MEQ/L
- SODIUM [2]: 149.7 MEQ/L
- TOTAL BILIRUBIN [2]: 0.13 mg/dL
- TOTAL PROTEIN [2]: 6.8 G/DL
